Experimental data reported in patent US20150111864A1, “CRYSTALLINE FORM OF A BETA-LACTAMASE INHIBITOR” (Cubist Pharmaceuticals, Inc., priority 2013, published 2015).
“Also recorded” adds a separate entry of the source. Where a name gives a salt, the structure may show the parent alone.

What was measured:
Type in all cases: physicochemical
[1] = Static stability / storage of solid forms, checked by XRPD
Description: The samples were analysed by XRPD and, where appropriate, by DSC, TGA, VT-XRPD and ^1H NMR. Static stability at 25° C./96% RH and 40° C./75% RH was also investigated.
This material was analysed by XRPD TGA, GVS, and mDSC. Static stability experiments were carried out under ambient conditions and also at 25° C./96% RH and 40° C./75% RH. Finally this material was used as input material for the polymorphism screen (see Table 6).

[2] = Drying of solid forms, form checked by XRPD; settings: for Filtration and air drying for 30 min: air drying 30 min
[3] = Gravimetric Vapour Sorption (GVS)
Description: Sorption isotherms were obtained using a SMS DVS Intrinsic moisture sorption analyser, controlled by DVS Intrinsic Control software v1.0.1.2 (or v 1.0.1.3). The sample temperature was maintained at 25° C. by the instrument controls. The humidity was controlled by mixing streams of dry and wet nitrogen, with a total flow rate of 200 ml/min The relative humidity was measured by a calibrated Rotronic probe (dynamic range of 1.0-100% RH), located near the sample. The weight change, (mass relaxation) of the sample as a function of % RH was constantly monitored by the microbalance (accuracy±0.005 mg). Typically 5-20 mg of sample was placed in a tared mesh stainless steel basket under ambient conditions. The sample was loaded and unloaded at 40% RH and 25° C. (typical room conditions). A moisture sorption isotherm was performed as outlined below (2 scans giving 1 complete cycle or 4 scans giving 2 complete cycles). The standard isotherm was performed at 25° C. at 10% RH intervals over a 0-90% RH range. Data analysis was undertaken in Microsoft Excel using DVS Analysis Suite v6.2 (or 6.1 or 6.0). Table 2 details the method parameters for SMS DVS intrinsic experiments.
The sample was recovered after completion of the isotherm and re-analysed by XRPD.

Aqueous solubility = experiment: Aqueous solubility
XRPD after ball milling = experiment: XRPD after ball milling
[4] = Static stability / storage of solid forms, checked by XRPD; remark: listed apart in the source

NCCCc1nnc([C@@H]2CC[C@@H]3CN2C(=O)N3OS(=O)(=O)O)o1 [Form 6, (2S,5R)-2-(5-(3-aminopropyl)-1,3,4-oxadiazol-2-yl)-7-oxo-1,6-diazabicyclo[3.2.1]octan-6-yl hydrogen sulfate]
Storage at 25° C./96% RH for 24 h ([1]; 25° C./96% RH): Conversion to Form 5
Storage at 40° C./75% RH for 24 h ([1]; 40° C./75% RH): Conversion to Form 5
Filtration and air drying for 30 min [2]: No change in form

NCCCc1nnc([C@@H]2CC[C@@H]3CN2C(=O)N3OS(=O)(=O)O)o1 [Form 5, (2S,5R)-2-(5-(3-aminopropyl)-1,3,4-oxadiazol-2-yl)-7-oxo-1,6-diazabicyclo[3.2.1]octan-6-yl hydrogen sulfate]
Stability relative to the amorphous solid form and other crystalline forms [1]: more stable than other crystalline forms; also recorded: improved stability
Change of XRPD pattern over time (FIG. 2) ([1]; 25° C. and 40% relative humidity, t=0 and t=2 days): little to no change
Storage at 25° C./96% RH for 1 week ([1]; 25° C./96% RH, 1 week): No change in form or crystallinity
Storage at 40° C./75% RH for 1 week ([1]; 40° C./75% RH, 1 week): No change in form or crystallinity
Relative stability of crystalline forms at ambient conditions ([1]; ambient conditions (25° C. and 40% RH)): most stable crystalline form
XRPD post GVS ([3]; after GVS isotherm): Form 5. No change in crystallinity
GVS Mass change ([3]; from 0-90% RH, 25° C.): Mass change of 9.73% from 0-90% RH
Aqueous solubility (24 hrs at 25°): solid form of residue (Aqueous solubility): Residue was Form 5
Aqueous solubility (24 hrs at 25°) (Aqueous solubility; pH 4.85): 13.1 mg/ml (pH 4.85).
XRPD after ball milling (20 min) (XRPD after ball milling): No change in form but loss
Storage in vacuum oven at 25° C. ([4]; 25° C., after 5 days): No change in form or crystallinity
Storage in vacuum oven at 50° C. ([4]; 50° C., after 24 h): Sample almost completely amorphous

NCCCc1nnc([C@@H]2CC[C@@H]3CN2C(=O)N3OS(=O)(=O)O)o1 [Amorphous Solid, (2S,5R)-2-(5-(3-aminopropyl)-1,3,4-oxadiazol-2-yl)-7-oxo-1,6-diazabicyclo[3.2.1]octan-6-yl hydrogen sulfate]
Static Stability - 25° C./96% RH: time to conversion to Form 5 ([1]; 25° C./96% RH): Conversion to Form 5 within 15 minutes
Static Stability - 40° C./75% RH: time to conversion to Form 5 ([1]; 40° C./75% RH): Conversion to Form 5 within 15 minutes
Static Stability - ambient ([1]; ambient conditions, XRPD): Form 5 peaks observed after 36 days (although
GVS (water uptake, in words) ([3]; 25° C., resulting solid was Form 5 by XRPD): Rapid uptake of water from 40-60%

NCCCc1nnc([C@@H]2CC[C@@H]3CN2C(=O)N3OS(=O)(=O)O)o1 [Form 7, (2S,5R)-2-(5-(3-aminopropyl)-1,3,4-oxadiazol-2-yl)-7-oxo-1,6-diazabicyclo[3.2.1]octan-6-yl hydrogen sulfate]
Storage at 25° C./96% RH for 24 h ([1]; 25° C./96% RH): Conversion to Form 5
Storage at 40° C./75% RH for 24 h ([1]; 40° C./75% RH): Conversion to Form 5
Storage at ambient conditions for 24 h [1]: No change in form
Filtration and air drying for 30 min [2]: No change in form

NCCCc1nnc([C@@H]2CC[C@@H]3CN2C(=O)N3OS(=O)(=O)O)o1 [Form 9, (2S,5R)-2-(5-(3-aminopropyl)-1,3,4-oxadiazol-2-yl)-7-oxo-1,6-diazabicyclo[3.2.1]octan-6-yl hydrogen sulfate]
Storage at 25° C./96% RH for 24 h ([1]; 25° C./96% RH): Conversion to Form 5
Storage at 40° C./75% RH for 24 h ([1]; 40° C./75% RH): Conversion to Form 5
Storage at ambient conditions for 24 h [1]: No change in form
Drying in at 5 mmHg/25° C. overnight ([2]; 5 mmHg, 25° C., overnight): No change in form
